The test system of assay [1] is amino alcohol dehydrogenase derived from Streptomyces virginiae IFO 12827. In words: Substrate specificity, relative activity to various substrates.
Description: Based on this reaction, the amino alcohol dehydrogenase activity i n the crude enzyme solution was spectroscopically determined by measuring the change of absorbance at 490 nm. One unit of enzymewas defined as the amount of the enzyme producing 1 μmol formazan in 1 min under the above condition.
For assay [2] the test system is unchanged. Nature of the assay: Km values in reductive amination and oxidative deamination. It is filed as biochemical.
The test system of assay [3] is amino alcohol dehydrogenase obtained in Example 7. In words: Enzyme reaction: conversion of substrates, product analysed by GC, HPLC or GC-MS. The format is biochemical, Streptomyces virginiae IFO 12827. Particulars: 0.5 unit enzyme, 25° C., 48 hours; reductive: 10 mM NADH, 0.2M NH4Cl, pH 8.0; oxidative: 10 mM NAD+, pH 9.0. How it is done:
The amino alcohol dehydrogenase (0.5 unit) obtained in Example 7 was added to 2 ml of a mixture containing 5 mM hydroxyacetone, 10 mM NADH, 0.2M NH4Cl, 0.1 M Tris-HCl buffer (pH 8.0), and the resulting reaction mixture was incubated at 25° C. for 48 hours. The product was analyzed by gas chromatography with a FID detector (column, TENAX TA (3.2 mm×1 m); injection and detection temperature, […]; N2 flow rate, 50 ml/min; column temperature, gradient from 150 to 180° C. (5° C./min); retained at 180° C. for 10 min). […] The retention time of 2-amino-1-propanol was completely the same as that of the standard compound.
The same reaction system as used in 1) except for using oxalacetic acid as a substrate in place of hydroxyacetone was incubated at 25° C. for 48 hours. The produced amino acid was converted into an o-phthalaldehyde (OPA) derivative by OPA-derivatization method. The derivative was analyzed by high-performance liquid chromatography (column, CAPCELL PAC C18 AG120 (4.6 mm×25 cm, Shiseido); detection, 340 nm; column temperature, 45° C.; mobile phase flow rate, 1 ml/ min; concentration gradient elution, a) 10 mM sodium phosphate buffer (pH 6.8) to b) acetonitrile:10 mM sodium phosphate buffer (pH 6.8) =2:1).
The amino alcohol dehydrogenase (0.5 unit) was added to a mixture of 2 mM 1-phenethylamine, 10 mM NAD^+ and 0.1, M Tris-HCl buffer (pH 9.0), and the resulting reaction solution was incubated at 25° C. for 48 hours. The reaction solution was adjusted to pH 10.0 with NaOH and extracted with an equivalent volume of ethyl acetate.

Assay [4] relates to amino alcohol dehydrogenase derived from Streptomyces virginiae IFO 12827. Nature of the assay: Coenzyme dependence. It is filed as biochemical.
Assay [5] deals with T1, alanine dehydrogenase (derived from Bacillus stearothermophilius, Seikagaku Corporation) (Geobacillus stearothermophilus, UniProt P17557).
T1 construct: purchased Seikagaku Corporation
T1 sequence (P17557 whole entry): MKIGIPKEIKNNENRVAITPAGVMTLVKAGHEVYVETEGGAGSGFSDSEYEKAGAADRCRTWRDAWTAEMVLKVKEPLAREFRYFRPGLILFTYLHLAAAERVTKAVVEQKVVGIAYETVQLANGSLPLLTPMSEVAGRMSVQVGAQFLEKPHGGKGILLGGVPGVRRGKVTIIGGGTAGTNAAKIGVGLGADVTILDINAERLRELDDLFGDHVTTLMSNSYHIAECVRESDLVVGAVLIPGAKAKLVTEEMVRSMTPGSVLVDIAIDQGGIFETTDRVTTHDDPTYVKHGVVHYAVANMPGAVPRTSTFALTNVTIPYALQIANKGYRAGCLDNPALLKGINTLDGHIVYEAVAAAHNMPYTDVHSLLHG
Nature of the assay: Reactivity of commercially available alanine dehydrogenase (NADH at 340 nm). The format is biochemical. Particulars: 1 mM NAD+, 10 mM substrate, 0.1 M Tris-HCl pH 8.0, 0.02 unit enzyme, 25° C. How it is done: (§1) Known NAD(H)-dependent amino acid dehydrogenases reportedly act on only keto acids and amino acids as substrates (Experiments of Biochemistry, Vol. 11, ed. by Japan Society of Biochemistry, Amino acid metabolism and biological amine (I) 193-218, J. Org. Chem. 55, 5567, 1990; Fermentation and Industry 40, 301-311, 1982). […] Reactivity of a commercially available alanine dehydrogenase to amino alcohols was examined. Reaction was performed at 25° C. for several min in a reaction solution containing 1 mM NAD^+, 10 mM of each substrate, 0.1 M Tris-HCl buffer (pH 8.0), and 0.02 unit of alanine dehydrogenase (derived from Bacillus stearothermophilius, Seikagaku Corporation). NADH produced was spectroscopically measured at 340 nm.

Assay [6] concerns L-glutamate dehydrogenase derived from microorganism (Toyobo). Nature of the assay: Reactivity of L-glutamate dehydrogenase derived from microorganism. Particulars: same experiment as Comparison Example 1. It is filed as biochemical. How it is done:
as §1
The same experiment as Comparison Example 1 was conducted using L-glutamate dehydrogenase derived from microorganism (Toyobo), and that derived from bovine liver (Lifetech Oriental).

The mark [7] stands for this setting: Substrate (Amines), TABLE 5 printed a fourth time.
Setting [8] is: Substrate (Amines), TABLE 5 printed a second time.
Setting [9] is: Substrate (Amines), TABLE 5 printed a third time.
Where [10] appears, read: reductive amination reaction (pH 7.0, phosphate buffer).
Setting [11] is: Substrate (Amino alcohols), activity to serinol as 100%, TABLE 3.
Setting [12] is: Substrate (Amino alcohols), activity to serinol as 100%, TABLE 3 printed a second time.
[13] abbreviates: oxidative deamination reaction (pH 9.0, Tris-HCl buffer).

In the case of `NCc1ccccc1` [benzylamine], the “Relative activity (%)” value in assay [1] (Substrate (Amines), TABLE 5) is reported as 134%; in assay [1] (setting [7]), 134%; in assay [1] (setting [8]), 134%; in assay [1] (setting [9]), 134%.
With `CCCCCCCCN` [n-octylamine], the “Relative activity (%)” value in assay [1] (Substrate (Amines), TABLE 5) came out at 114%; in assay [1] (setting [7]), 114%; in assay [1] (setting [8]), 114%; in assay [1] (setting [9]) it was 114%.
For NADH, the Michaelis constant (Km) (in general, the substrate concentration at which the rate is half of its maximum) in assay [2] (setting [10]) worked out at 22 µM.
For the molecule `CC(N)c1ccccc1` (centres unmarked) [1-phenethylamine], in assay [3], the “conversion by the enzyme” value is on record as “the enzyme converts amine into ketone”.
For the molecule `N[C@H](CO)Cc1ccccc1` [(S)-(−)-2-amino-3-phenyl-1-propanol], the “Relative activity (%)” value in assay [1] (setting [11]) and in assay [1] (setting [12]) was 120% throughout.
Regarding `CCCCC[C@@H](C)N` [(R)-2-aminoheptane], the “Relative activity (%)” value in assay [1] (Substrate (Amines), TABLE 5) is 91%; in assay [1] (setting [7]) it was 91%; in assay [1] (setting [8]) it was 91%; in assay [1] (setting [9]) it was 91%.
Regarding `CC[C@H](C)[C@H](N)CO` [isoleucinol], the “Relative activity (%)” value in assay [1] (setting [11]) and in assay [1] (setting [12]) was 113% throughout.
On to `NC1CCCCC1O` (centres unmarked) [2-aminocyclohexanol], for which the “Relative activity (%)” value in assay [1] (setting [11]) and in assay [1] (setting [12]) was 113% throughout.
For `NC(CO)CO` [serinol], in assay [2] (setting [13]), the Km was 4000 µM. Also, the “Relative activity (%)” value in assay [1] (setting [11]) and in assay [1] (setting [12]) was 100% each time.
Turning to `CC(C)[C@H](N)CO` [(S)-(+)-2-amino-3-methyl-1-butanol], the “Relative activity (%)” value in assay [1] (setting [11]) and in assay [1] (setting [12]) was 43% throughout.
NAD(H): in assay [4], the “use as coenzyme / electron acceptor” value is listed as “dependent”.
As for `CCCC(C)N` (centres unmarked) [2-aminopentane], the “Relative activity (%)” value is reported as 252% in assay [1] (Substrate (Amines), TABLE 5); 252% in assay [1] (setting [7]); 252% in assay [1] (setting [8]); 252% in assay [1] (setting [9]).
In the case of `CCC(N)CO` (single isomer, unassigned; (+)) [(+)-2-amino-1-butanol], the “Relative activity (%)” value in assay [1] (setting [11]) and in assay [1] (setting [12]) was 109% in each case.
Take `Cl.N` [NH4Cl]: the Michaelis-Menten constant (Km) in assay [2] (setting [10]) was determined as 25000 µM.
For `C[C@@H](N)c1ccccc1` [(R)-1-phenethylamine], the “Relative activity (%)” value in assay [1] (Substrate (Amines), TABLE 5) came to 127%; in assay [1] (setting [7]), 127%; in assay [1] (setting [8]) it was 127%; in assay [1] (setting [9]), 127%.
As for `O=C(O)CC(=O)C(=O)O` [oxalacetic acid], the “conversion by the enzyme” value in assay [3] is reported as “peak of the product, aspartic acid was observed”.
Regarding `NC(=O)c1ccc[n+]([C@@H]2O[C@H](COP(=O)([O-])OP(=O)(O)OC[C@H]3O[C@@H](n4cnc5c(N)ncnc54)[C@H](O)[C@@H]3O)[C@@H](O)[C@H]2O)c1` [NAD^+], the Michaelis constant (Km) in assay [2] (setting [13]) turned out to be 840 µM.
Consider `CCCC(N)CO` (racemic) [DL-2-amino-1-pentanol], for which the “Relative activity (%)” value in assay [1] (setting [11]) and in assay [1] (setting [12]) was 103% in each case.
`COS(=O)(=O)[O-].C[n+]1c2ccccc2nc2ccccc21` [PMS, phenazinementasulfate, reference compound]: in assay [4], the “use as coenzyme / electron acceptor” value was “does not use”.
With `CCCCN` [n-butylamine], the “Relative activity (%)” value was 170% in assay [1] (Substrate (Amines), TABLE 5); 170% in assay [1] (setting [7]); 170% in assay [1] (setting [8]); 170% in assay [1] (setting [9]).
On to `Nc1ncccc1O` [2-amino-3-hydroxypyridine], for which the “Relative activity (%)” value in assay [1] (setting [11]) and in assay [1] (setting [12]) was 136% each time.
Take `CCCCCCN` [n-hexylamine]: the “Relative activity (%)” value in assay [1] (Substrate (Amines), TABLE 5) came to 173%; in assay [1] (setting [7]), 173%; in assay [1] (setting [8]), 173%; in assay [1] (setting [9]), 173%.
As to NADP(H), the “use as coenzyme / electron acceptor” value in assay [4] is reported as “does not use”.
Regarding `C[C@H](N)C(=O)O` [L-alanine], in assay [5], the “enzyme acts on substrate” value is listed as “acted on”.
In the case of `CCC(N)CC` [3-aminopentane], the “Relative activity (%)” value in assay [1] (Substrate (Amines), TABLE 5) is 270%; in assay [1] (setting [7]) it was 270%; in assay [1] (setting [8]), 270%; in assay [1] (setting [9]), 270%.
On to `CC(C)C[C@H](N)CO` [(S)-(+)-leucinol], for which the “Relative activity (%)” value in assay [1] (setting [11]) and in assay [1] (setting [12]) was 105% in each case.
In the case of `CC(N)CCc1ccccc1` (centres unmarked) [1-methyl-3-phenylpropylamine], the “Relative activity (%)” value is given as 152% in assay [1] (Substrate (Amines), TABLE 5); 152% in assay [1] (setting [7]); 152% in assay [1] (setting [8]); 152% in assay [1] (setting [9]).
Consider `CC(C)(N)CO` [2-amino-2-methyl-1-propanol], for which the “Relative activity (%)” value in assay [1] (setting [11]) and in assay [1] (setting [12]) was 115% each time.
Regarding `CC(=O)CO` [hydroxyacetone], the “conversion by the enzyme” value in assay [3] is “production of 2-amino-1-propanol was detected”.
Consider `CC[C@@H](C)N` [(R)-2-aminobutane], for which the “Relative activity (%)” value in assay [1] (Substrate (Amines), TABLE 5) stood at 127%; in assay [1] (setting [7]) it was 127%; in assay [1] (setting [8]), 127%; in assay [1] (setting [9]) it was 127%.
Regarding `CSCC[C@H](N)CO` [L-(−)-methioninol], the “Relative activity (%)” value in assay [1] (setting [11]) and in assay [1] (setting [12]) was 85% each time.
`N[C@@H](CCC(=O)O)C(=O)O` [L-glutamic acid]: the “enzyme acts on substrate” value in assay [6] is given as “acted on”.

The values are drawn from patent publication US6432688B1, “Amino alcohol dehydrogenase converts keto alcohol to amino alcohol and amino alcohol to keto alcohol” (Daicel Chemical Industries, Ltd., priority 1999, dated 2002).
